From EP0799614A1, “REMEDY FOR ISCHEMIC DISEASES” (CHUGAI SEIYAKU KABUSHIKI KAISHA, priority 1994, dated 1996)
Read-outs that look alike come from different tables or passages of the source.

How the values were obtained:
rabbit LDL = assay: Inhibitory action on lipid peroxidation in vitro, Method A: oxidation of LDL by soybean lipoxygenase, fluorescence of LDL fraction; format: biochemical; conditions: fluorescence intensity of oxidized LDL fraction, SLO 40 µg/ml, 37°C, 24 hours
Protocol: A test compound was added to rabbit LDL prepared according to the method of Havel, et al. (Havel RJ et al., J. Clin. Invest., 34, 1345 (1955)), and then a soybean lipoxygenase type-IS (SLO) was added to a final concentration of 40 µg/ml. Oxidation of LDL was carried out at 37°C in a CO2 incubator for 24 hours. The oxidized LDL solution was separated by gel-permeation chromatography, and the fluorescence intensity of the LDL fraction was measured at an excitation wavelength of 360 nm and an emission wavelength of 430 nm.

thoracic aorta = assay: Vasorelaxing action in vitro: relaxation of 30 mM K+ contraction of aortic rings; format: cell-based, Sprague-Dawley (Crj) male rat; conditions: contraction at 30 mM K+ taken as 100%
Protocol: The thoracic aorta was excised from a Sprague-Dawley (Crj) male rat weighing between 350 and 550 g, and dissected free from surrounding connective tissue. The vessel was cut into a ring having a width of 2 to 3 mm. The resulting preparation was mounted for isometric tension recording in an organ bath filled with 10 ml of a Krebs-Henseleit solution (K-H solution, pH 7.4, 37°C), which was bubbled with 95% 02/5% CO2. Isometric tension changes were monitored with an isometric tranducer (TB-611T, manufactured by Nihon Kohden Corp.). Before starting the experiment, the preparation was given a stretched tension of 2 g and allowed to equilibrate for 30 minutes (the K-H solution was exchanged for a fresh one every 15 minutes). At first, the preparation was precontracted by changing the solution in the bath to one containing 30 mM K^+. After the contraction was maintained for 20 minutes, the preparation was washed with K-H solution. Sixty minutes thereafter (the K-H solution was exchanged with a fresh one every 20 minutes), contraction was again induced in the same manner as described above. […]

[1] = system: Isolated ventricular myocytes; assay: Inhibitory action on calcium overload in vitro, Method B: veratridine-treated myocytes; format: cell-based, male Sprague-Dawley rat; conditions: veratridine 50 µg/ml, read-out: Concentration at Which Cells Survived Almost Completely
Protocol: (§1) Isolated ventricular myocytes were prepared from the heart of male Sprague-Dawley rat weighing 300 to 500 g, using an enzyme-perfusion method. […]
The efficacy was evaluated in the same manner as in Method A, except for using 50 µg/ml of veratridine in place of veratrine (100 µg/ml).

[2] = system: Thoracic aorta preparations from rats; assay: Vasorelaxing action in vitro: effect on CaCl2-induced contractions; format: cell-based; conditions: Fig. 1; CaCl2 0.01 - 10 mM in 60 mM K+ PSS; compared with diltiazem
Protocol: Thoracic aorta preparations from rats were stabilized in normal physiological salt solution (PSS) for at least 30 min, contracted with 60 mM KCl and, thereafter, relaxed with normal PSS. Twenty minutes later, the preparations were exposed to Ca^2+ -free 60 mM K^+ PSS (containing 0.1 mM EGTA) for 20 min, then to nominally Ca^2+ -free 60 mM K^+ PSS which is free of EGTA for 20 min, followed by cumulative application of CaCl2 (0.01 - 10 mM) to construct a dose-response curve. […] The response was converted to percent contraction, with the contraction caused by 10 mM CaCl2 being taken as 100%. The data in Fig. 1 are expressed by the mean of 5 cases ± standard error.

[3] = system: coronary preparations from dogs; assay: Antispasmodic action in vitro: 3,4-diaminopyridine-induced rhythmic contractions; format: cell-based; conditions: Fig. 2; 3,4-DAP 10 mM; compared with diltiazem
Protocol: Following repeated replacements of PSS in an organ bath at 15-min intervals, the tension on each of the coronary preparations from dogs stabilized at 2 g; then, PSS was replaced by a 30 mM K^+ PSS to contract the preparations. The 30mM K^+ PSS was replaced by normal PSS in an organ bath to relax the preparations, followed by replacements with PSS at 20-min intervals to stabilize the tension for about 1 h, followed by the addition of 3,4-DAP (10 mM) to induce rhythmic contractions. […] The drug concentration allowing for complete suppression of the amplitude of the 3,4-DAP-induced rhythmic contractions may be designated "elimination dose".

[4] = system: Isolated ventricular myocytes; assay: Inhibitory action on calcium overload in vitro, Method A: veratrine-treated myocytes, survival rate; format: cell-based, male Sprague-Dawley rat; parameters: key: ++: The cells survived almost completely at 10^-7 M.; +: The cells survived almost completely at 10^-6 M.; The cells died almost completely at 10 M^-6 M; conditions: 30 minutes pretreatment, veratrine 100 µg/ml, observed five minutes later
Protocol: as §1

Male Sprague-Dawley rats = assay: Preventive effect on ventricular arrhythmia caused by occlusion and reperfusion of the coronary artery; format: in vivo; conditions: Fig. 4; 0.5, 1 and 3 mg/kg via femoral vein 10 min before occlusion; compared with diltiazem 1 and 3 mg/kg
Protocol: Male Sprague-Dawley rats (450 - 600 g) were anethetized with pentobarbital, subjected to thoracotomy under artificial respiration, had the arterior descending branch of the left coronary artery occluded with a silk ligature for 5 min, had the occlusion removed to permit reperfusion and examined for 10 min. A standard limb lead II electrocardiogram was recorded to check for the occurrence of ventricular arrythmia. […] The parethesized numeral at the bottom of each bar in Fig. 4 represents the number of cases.

Row | Structure (SMILES) | IC50 (thoracic aorta) | IC50 (thoracic aorta; Rattus norvegicus) | Survival Rate of Cells [4] | other results
1 | CN(CCCN1C(=O)CSC1c1cc(C(C)(C)C)c(O)c(C(C)(C)C)c1)CCOc1ccc2c(c1)OCO2 (single isomer, unassigned; (+)) [Compound 70, (+)-2-(3,5-Di-tert-butyl-4-hydroxyphenyl)-3-[3-[N-methyl-N-[2-(3,4-methylenedioxyphenoxy)ethyl]amino]propyl]-1,3-thiazolidin-4-one] | 300 nM |  |  | Percent (%) of Control (rabbit LDL; 5 x 10^-6 M, 5 µM): 5.1%; minimal effective concentration ([1]; Rattus norvegicus, Ventricular myocyte): 0.32 µM
2 | CC1SC(c2cc(C(C)(C)C)c(O)c(C(C)(C)C)c2)N(CCCN(C)CCOc2ccc3c(c2)OCO3)C1=O (single isomer, unassigned; (+)) [Compound 74, (+)-2,5-Cis-2-[3,5-di-tert-butyl-4-hydroxyphenyl)-3-[3-[N-methyl-N-[2-(3,4-methylenedioxyphenoxy)ethyl]amino]propyl]-5-methyl-1,3-thiazolidin-4-one] | 141 nM |  |  | 
3 | CN(CCCN1C(=O)CSC1c1cc(C(C)(C)C)c(O)c(C(C)(C)C)c1)CCOc1ccc2c(c1)OCO2 (single isomer, unassigned; (-)) [Compound 71, (-)-2-(3,5-Di-tert-butyl-4-hydroxyphenyl)-3-[3-[N-methyl-N-[2-(3,4-methylenedioxyphenoxy)ethyl]amino]propyl]-1,3-thiazolidin-4-one] | 27 nM |  |  | Percent (%) of Control (rabbit LDL; 5 x 10^-6 M, 5 µM): 2.8%; minimal effective concentration [1]: 0.32 µM; inhibitory action against the contraction caused by CaCl2 [2]: need be applied in a by far smaller amount than diltiazem to exhibit an outstanding inhibitory action; suppression of 3,4-DAP-induced rhythmic contractions [3]: capable of suppressing the 3,4-DAP-induced rhythmic contractions at a lower concentration than diltiazem
4 | CC1SC(c2cc(C(C)(C)C)c(O)c(C(C)(C)C)c2)N(CCCN(C)CCOc2ccc3c(c2)OCO3)C1=O (single isomer, unassigned; (-)) [Compound 75, (-)-2,5-Cis-2-[3,5-di-tert-butyl-4-hydroxyphenyl)-3-[3-[N-methyl-N-[2-(3,4-methylenedioxyphenoxy)ethyl]amino]propyl]-5-methyl-1,3-thiazolidin-4-one] | 22 nM |  |  | minimal effective concentration [1]: 0.32 µM
5 | CC(C)c1cc(C2SCC(=O)N2CCCN(C)CCOc2ccc3c(c2)OCO3)cc(C(C)C)c1O (centres unmarked) [Compound 1, 2-(3,5-Diisopropyl-4-hydroxyphenyl)-3-[3-[N-methyl-N-[2-(3,4-methylenedioxyphenoxy)ethyl]amino]propyl]-1,3-thiazolidin-4-one] |  | 170 nM |  | 
6 | CN(CCCCN1C(=O)CSC1c1cc(C(C)(C)C)c(O)c(C(C)(C)C)c1)CCOc1ccc2c(c1)OCO2 (centres unmarked) [Compound 8] |  | 170 nM | ++ | 
7 | CN(CCCCCN1C(=O)CSC1c1cc(C(C)(C)C)c(O)c(C(C)(C)C)c1)CCOc1ccc2c(c1)OCO2 (centres unmarked) [Compound 9] |  | 28 nM | ++ | Percent (%) of Control (rabbit LDL; 5 x 10^-6 M): 5.9%
8 | COc1c(C(C)(C)C)cc(C2SCC(=O)N2CCCN(C)CCOc2ccc3c(c2)OCO3)cc1C(C)(C)C (centres unmarked) [Compound 11] |  | 21 nM |  | 
9 | CCN(CCCN1C(=O)CSC1c1cc(C(C)(C)C)c(O)c(C(C)(C)C)c1)CCOc1ccc2c(c1)OCO2 (centres unmarked) [Compound 12] |  | 63 nM | ++ | Percent (%) of Control (rabbit LDL; 5 x 10^-6 M): 6.4%
10 | CN(CCCOc1ccc2c(c1)OCO2)CCCN1C(=O)CSC1c1cc(C(C)(C)C)c(O)c(C(C)(C)C)c1 (centres unmarked) [Compound 17] |  | 28 nM |  | Percent (%) of Control (rabbit LDL; 5 x 10^-6 M): 3.9%
11 | COc1ccc(CN(C)CCCN2C(=O)CSC2c2cc(C(C)(C)C)c(O)c(C(C)(C)C)c2)cc1OC (centres unmarked) [Compound 19] |  | 110 nM |  | 
12 | COc1ccc(CCN(C)CCCN2C(=O)CSC2c2cc(C(C)(C)C)c(O)c(C(C)(C)C)c2)cc1OC (centres unmarked) [Compound 20] |  |  | + | Percent (%) of Control (rabbit LDL; 5 x 10^-6 M): 0.6%; Percent (%) of Control (rabbit LDL; 5 x 10^-7 M, 0.5 µM): 8.7%
13 | CN(CCCN1C(=O)CSC1c1cc(C(C)(C)C)c(O)c(C(C)(C)C)c1)CCOc1ccc2c(c1)OCO2 (centres unmarked) [Compound 26, 2-(3,5-Di-tert-butyl-4-hydroxyphenyl)-3-[3-[N-methyl-N-[2-(3,4-methylenedioxyphenoxy)ethyl]amino]propyl]-1,3-thiazolidin-4-one] | 37 nM |  | ++ | incidence of arrhythmia (Male Sprague-Dawley rats): by far superior effect to diltiazem in decreasing the incidnece of arrhythmia
14 | CC1SC(c2cc(C(C)(C)C)c(O)c(C(C)(C)C)c2)N(CCCN(C)CCOc2ccc3c(c2)OCO3)C1=O (centres unmarked) [Compound 41, 2-(3,5-Di-tert-butyl-4-hydroxyphenyl)-3-[3-[N-methyl-N-[2-(3,4-methylenedioxyphenoxy)ethyl]amino]propyl]-5-methyl-1,3-thiazolidin-4-one] | 56 nM |  |  | Percent (%) of Control (rabbit LDL; 5 x 10^-6 M): 6.2%
15 | CN(CCCN1C(=O)C(CCO)SC1c1cc(C(C)(C)C)c(O)c(C(C)(C)C)c1)CCOc1ccc2c(c1)OCO2 (centres unmarked) [Compound 49, 2-(3,5-Di-tert-butyl-4-hydroxyphenyl)-3-[3-[N-methyl-N-[2-(3,4-methylenedioxyphenoxy)ethyl]amino]propyl]-5-(2-hydroxyethyl)-1,3-thiazolidin-4-one] |  | 23 nM |  | 
16 | CN(CCCN1C(=O)C(OCCO)SC1c1cc(C(C)(C)C)c(O)c(C(C)(C)C)c1)CCOc1ccc2c(c1)OCO2 (centres unmarked) [Compound 55] |  | 21 nM |  | 
17 | CC1SC(c2cc(C(C)(C)C)c(O)c(C(C)(C)C)c2)N(CCCN(C)CCOc2ccc3c(c2)OCO3)C1=O (stereo not drawn) [Compound 72, 2,5-Trans-2-(3,5-di-tert-butyl-4-hydroxyphenyl)-3-[3-[N-methyl-[2-(3,4-methylenedioxyphenoxy)ethyl]amino]propyl]-5-methyl-1,3-thiazolidin-4-one] |  | 98 nM |  | 
18 | CC1SC(c2cc(C(C)(C)C)c(O)c(C(C)(C)C)c2)N(CCCN(C)CCOc2ccc3c(c2)OCO3)C1=O (stereo not drawn) [Compound 73, 2,5-Cis-2-(3,5-di-tert-butyl-4-hydroxyphenyl)-3-[3-[N-methyl-N-[2-(3,4-methylenedioxyphenoxy)ethyl]amino]propyl]-5-methyl-1,3-thiazolidin-4-one] | 49 nM |  |  | minimal effective concentration [1]: 0.32 µM
19 | COc1ccc([C@@H]2Sc3ccccc3N(CCN(C)C)C(=O)[C@@H]2OC(C)=O)cc1 [Diltiazem, reference compound] |  |  | - | 
